{"source": "paper PMC8795197", "about": "“Safety and activity of WX-0593 (Iruplinalkib) in patients with ALK- or ROS1-rearranged advanced non-small cell lung cancer: a phase 1 dose-escalation and dose-expansion trial” (Signal Transduction and Targeted Therapy, 2022)", "key": {"in vivo": {"assay": "in vivo", "set-up": "species or system nude mice", "settings": "mouse", "method": "The severely toxic dose in 10% of the animals (STD10) in rodents was > 30 mg/kg. At a dose of 10 mg/kg/day, AUC0-24h (Day 28) was 16800 h·ng/mL in males and 17300 h·ng/mL in females, which is 4.5 times and 4.7 times of the exposure at the effective dose in mice (2.5 mg/kg, AUC0-24h: 3700 h·ng/mL). At a dose of 30 mg/kg/day, AUC0-24h (Day 28) was 27100 h·ng/mL in males and 42400 h·ng/mL in females, which is 7.3 times and 11.5 times of the exposure at the effective dose in nude mice (2.5 mg/kg, AUC0-24h: 3700 h·ng/mL)."}, "Caco-2 cell monolayer": {"tested_on": "Caco-2 cell monolayer", "assay": "Caco-2 cell monolayer permeability assay", "type": "in vitro ADME", "excerpt": "The objective of this study was to determine the bidirectional permeability and efflux ratio (ER) of the test article WX-0593 using the Caco-2 cell monolayer model."}, "CYP3A4": {"target": "CYP3A4 (Homo sapiens, UniProt P08684)", "sequence (P08684 whole entry)": "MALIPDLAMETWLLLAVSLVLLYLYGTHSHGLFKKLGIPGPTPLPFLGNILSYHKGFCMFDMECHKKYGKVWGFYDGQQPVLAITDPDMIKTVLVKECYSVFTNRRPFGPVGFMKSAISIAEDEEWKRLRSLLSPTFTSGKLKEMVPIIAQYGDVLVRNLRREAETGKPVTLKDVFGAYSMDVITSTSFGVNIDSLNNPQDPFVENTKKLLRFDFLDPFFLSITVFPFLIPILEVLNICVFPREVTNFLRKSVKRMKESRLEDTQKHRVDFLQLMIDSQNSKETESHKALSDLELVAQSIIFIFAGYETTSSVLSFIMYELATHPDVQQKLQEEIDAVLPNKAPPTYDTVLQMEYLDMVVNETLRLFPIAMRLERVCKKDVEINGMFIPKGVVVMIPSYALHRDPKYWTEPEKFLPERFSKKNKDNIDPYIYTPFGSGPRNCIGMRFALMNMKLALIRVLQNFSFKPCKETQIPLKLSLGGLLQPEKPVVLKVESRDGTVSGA", "assay": "Metabolic enzyme phenotyping (chemical inhibitors, recombinant human P450)", "type": "in vitro ADME", "excerpt": "Other isoenzymes (CYP1A2, CYP2B6, CYP2C8, CYP2C9, CYP2C19 and CYP2D6) played a secondary or insignificant role in the formation of M1, M2, and M5."}, "[1]": {"assay": "Metabolite identification in plasma", "type": "in vivo, SD rat", "settings": "oral WX-0593", "excerpt": "Under current experimental conditions, a total of 2 metabolites in addition to the parent drug were detected in rat plasma: a demethylation metabolite, M2 (MW = 554.23, P - CH2) and a mono-oxidation and dehydrogenation product, M6 (MW = 582.23, P + O - 2H). Based on the % peak area from mass spectrometry, the drug exists primarily as the parent drug in the plasma of both male and female rats (97.24% in females and 96.81% in males). Metabolites M2 (2.76% in females and 2.88% in males) and M6 ([…] and 0.31% in males) were both secondary metabolites. Based on the types of metabolites, it is speculated that WX-0593 is mainly metabolized through demethylation, oxidation, and dehydrogenation after oral administration in rats. There was no significant difference in metabolites between female and male rats."}, "[2]": {"assay": "Single-dose toxicity study (acute toxicity)"}, "[3]": {"tested_on": "Ba/F3 SLC34A2-ROS1-L2026M", "assay": "Growth of transfected Ba/F3 cells (CellTiter-Glo, 3 days)", "type": "cell-based", "settings": "Mus musculus, BaF3", "method": "(§1) Harvest cells during the logarithmic growth period and count cells using blood counting chamber. Adjust cell concentration with culture medium. Add 90µl cell suspensions to two 96-well plates to the final cell density as described before. Incubate the plate overnight in humidified incubator at 37℃ with 5% CO2. Dispense 10µl drug solution (10×) to each well (triplicate for each concentration), and the DMSO final concentration in culture medium is 0.1% [v/v]. Culture the plates for 3 days.On Day 3, Read luminescent using Multi Label Reader. The software of GraphPad Prism was used to calculate IC50. The graphical curves were fitted using a nonlinear regression model with a sigmoidal dose response."}, "[4]": {"tested_on": "Ba/F3 SLC34A2-ROS1-G2032R", "assay": "Growth of transfected Ba/F3 cells (CellTiter-Glo, 3 days)", "type": "cell-based", "settings": "Mus musculus, BaF3", "method": "as §1"}, "Ba/F3 CD74-ROS1-D2033N": {"tested_on": "Ba/F3 CD74-ROS1-D2033N", "assay": "Growth of transfected Ba/F3 cells (CellTiter-Glo, 3 days)", "type": "cell-based", "settings": "Mus musculus, BaF3", "method": "as §1"}, "Ba/F3 CD74-ROS1-L1951R": {"tested_on": "Ba/F3 CD74-ROS1-L1951R", "assay": "Growth of transfected Ba/F3 cells (CellTiter-Glo, 3 days)", "type": "cell-based", "settings": "Mus musculus, BaF3", "method": "as §1"}, "Ba/F3 SLC34A2-ROS1": {"tested_on": "Ba/F3 SLC34A2-ROS1", "assay": "Growth of transfected Ba/F3 cells (CellTiter-Glo, 3 days)", "type": "cell-based", "settings": "Mus musculus, BaF3", "method": "as §1"}, "[5]": {"tested_on": "ALK+ human lung cancer LU-01-0015 xenograft", "assay": "PDX model, anti-tumor activity", "type": "in vivo", "method": "(§2) The anti-tumor activity of WX-0593 was evaluated in two PDX models. […] WX-0593 was well-tolerated at all concentrations."}, "[6]": {"tested_on": "ALK+ human lung cancer LU-01-0319 xenograft", "assay": "PDX model, anti-tumor activity", "type": "in vivo", "method": "as §2"}, "[7]": {"assay": "Excretion and mass balance after [14C]WX-0593, bile-duct cannulation (BDC)", "type": "in vivo", "settings": "0-72 hours, BDC rats"}, "[8]": {"assay": "Tissue distribution of total radioactivity after [14C]WX-0593", "type": "in vivo, SD rats", "method": "At 0.5 h after drug administration, the total radioactivity was mainly distributed in the gastrointestinal tract, liver, oesophagus, and adrenal glands. […] The distribution of total radioactivity in other tissues in descending order was lungs, kidneys, spleen, pancreas, lymph nodes, heart, uterus and ovaries, plasma, thymus, prostate, whole blood, skeletal muscles, skin, testis and epididymis, and whole brain. […] Only the total radioactivity of skeletal muscles (1417 ng Eq./g), whole blood (1366 ng Eq./g), body fat (1079 ng Eq./g), testis and epididymis (619 ng Eq./g), and whole brain (114 ng Eq./g) were lower than that of plasma at the same time point. […] At the last sampling time point (72 h), most total radioactivity had been cleared from the body and only the spleen, adrenal glands, liver, testis and epididymis, kidneys, lymph nodes, uterus and ovaries, intestinal wall, lungs, and thymus had been traced small amount of radioactivity."}, "[9]": {"settings": "0.5 h, oral [14C]WX-0593 8 mg/kg"}}, "note": "“Also recorded” adds a separate entry of the source.", "data": [{"compound": "COc1cc(N2CCC3(CCN(C)CC3)CC2)ccc1Nc1ncc(Cl)c(Nc2ccccc2P(C)(C)=O)n1", "note": "[WX-0593]", "values": [{"measurement": "murine effective dose", "setting": "in vivo", "value": 2.5, "unit": "mg/kg"}, {"measurement": "AUC(0-t)", "setting": "in vivo; nude, 2.5 mg/kg", "value": 3700, "unit": "ng·h/mL"}, {"measurement": "efflux transporter substrate", "setting": "Caco-2 cell monolayer", "value": "very likely to be a substrate of efflux transporters"}, {"measurement": "permeability", "setting": "Caco-2 cell monolayer; 50 µM", "value": "high permeability"}, {"measurement": "permeability", "setting": "Caco-2 cell monolayer; 0.5 and 5 µM", "value": "low permeability"}, {"measurement": "major metabolic enzyme (formation of M1, M2, M5)", "setting": "CYP3A4", "value": "primarily metabolized by CYP3A4; also recorded: CYP3A4 is the major metabolic enzyme"}, {"measurement": "% peak area from mass spectrometry in plasma", "setting": "[1]; female rats", "value": 97.24, "unit": "%"}, {"measurement": "% peak area from mass spectrometry in plasma", "setting": "[1]; male rats", "value": 96.81, "unit": "%"}, {"measurement": "MTD as multiple of the effective dose", "setting": "[2]; female animals", "value": 10, "unit": "times"}, {"measurement": "MTD as multiple of the effective dose", "setting": "[2]; males", "value": 40, "unit": "times"}, {"measurement": "IC50", "setting": "[3]", "value": 12, "unit": "nM"}, {"measurement": "IC50", "setting": "[4]", "value": 584, "unit": "nM"}, {"measurement": "IC50", "setting": "Ba/F3 CD74-ROS1-D2033N", "value": 33.8, "unit": "nM"}, {"measurement": "IC50", "setting": "Ba/F3 CD74-ROS1-L1951R", "value": 626, "unit": "nM"}, {"measurement": "IC50", "setting": "Ba/F3 SLC34A2-ROS1", "value": 11, "unit": "nM"}, {"measurement": "anti-tumor activity", "setting": "[5]; 15 mg/kg, 10 mg/kg (D0–D7)/2.5 mg/kg (D8–D27), 5 mg/kg", "value": "significant anti-tumor activity"}, {"measurement": "body weight", "setting": "[5]; all treatment arms", "value": "no significant decrease in weight"}, {"measurement": "anti-tumor activity", "setting": "[6]; 1, 2.5 and 5 mg/kg", "value": "good anti-tumor activity"}, {"measurement": "mean body weight", "setting": "[6]; all treatment arms", "value": "no significant decrease in mean weight"}, {"measurement": "dose excreted in bile", "setting": "[7]", "value": 30.56, "unit": "%"}, {"measurement": "dose excreted in feces", "setting": "[7]", "value": 32.04, "unit": "%"}, {"measurement": "dose excreted in urine", "setting": "[7]", "value": 30.73, "unit": "%"}, {"measurement": "dose in cage rinses and washes", "setting": "[7]", "value": 1.43, "unit": "%"}, {"measurement": "mean radioactivity recovery rate", "setting": "[7]", "value": 94.75, "unit": "%"}, {"measurement": "total radioactivity relative to plasma, adrenal glands", "setting": "[8]; 0.5 h", "value": 8.76, "unit": "times"}, {"measurement": "total radioactivity relative to plasma, intestinal wall", "setting": "[8]; 0.5 h", "value": 28.1, "unit": "times"}, {"measurement": "total radioactivity relative to plasma, liver", "setting": "[8]; 0.5 h", "value": 9.96, "unit": "times"}, {"measurement": "total radioactivity relative to plasma, oesophagus", "setting": "[8]; 0.5 h", "value": 9.07, "unit": "times"}, {"measurement": "total radioactivity relative to plasma, stomach wall", "setting": "[8]; 0.5 h", "value": 18.6, "unit": "times"}, {"measurement": "mean total radioactivity, adrenal glands", "setting": "[8]; [9]", "value": 13334, "unit": "ng Eq./g"}, {"measurement": "mean total radioactivity, intestinal wall", "setting": "[8]; [9]", "value": 42737, "unit": "ng Eq./g"}, {"measurement": "mean total radioactivity, liver", "setting": "[8]; [9]", "value": 15160, "unit": "ng Eq./g"}, {"measurement": "mean total radioactivity, oesophagus", "setting": "[8]; [9]", "value": 13803, "unit": "ng Eq./g"}, {"measurement": "mean total radioactivity, plasma", "setting": "[8]; [9]", "value": 1522, "unit": "ng Eq./g"}, {"measurement": "mean total radioactivity, stomach wall", "setting": "[8]; [9]", "value": 28265, "unit": "ng Eq./g"}, {"measurement": "total radioactivity, body fat", "setting": "[8]; 3 h", "value": 1079, "unit": "ng Eq./g"}, {"measurement": "total radioactivity, plasma", "setting": "[8]; 3 h", "value": 2062, "unit": "ng Eq./g"}, {"measurement": "total radioactivity, skeletal muscles", "setting": "[8]; 3 h", "value": 1417, "unit": "ng Eq./g"}, {"measurement": "total radioactivity, testis and epididymis", "setting": "[8]; 3 h", "value": 619, "unit": "ng Eq./g"}, {"measurement": "total radioactivity, whole blood", "setting": "[8]; 3 h", "value": 1366, "unit": "ng Eq./g"}, {"measurement": "total radioactivity, whole brain", "setting": "[8]; 3 h", "value": 114, "unit": "ng Eq./g"}, {"measurement": "mean total radioactivity, adrenal glands", "setting": "[8]; 72 h", "value": 1296, "unit": "ng Eq./g"}, {"measurement": "mean total radioactivity, intestinal wall", "setting": "[8]; 72 h", "value": 129, "unit": "ng Eq./g"}, {"measurement": "mean total radioactivity, kidneys", "setting": "[8]; 72 h", "value": 438, "unit": "ng Eq./g"}, {"measurement": "mean total radioactivity, liver", "setting": "[8]; 72 h", "value": 922, "unit": "ng Eq./g"}, {"measurement": "mean total radioactivity, lungs", "setting": "[8]; 72 h", "value": 103, "unit": "ng Eq./g"}, {"measurement": "mean total radioactivity, lymph nodes", "setting": "[8]; 72 h", "value": 292, "unit": "ng Eq./g"}, {"measurement": "mean total radioactivity, spleen", "setting": "[8]; 72 h", "value": 1883, "unit": "ng Eq./g"}, {"measurement": "mean total radioactivity, testis and epididymis", "setting": "[8]; 72 h", "value": 504, "unit": "ng Eq./g"}, {"measurement": "mean total radioactivity, thymus", "setting": "[8]; 72 h", "value": 95.8, "unit": "ng Eq./g"}, {"measurement": "mean total radioactivity, uterus and ovaries", "setting": "[8]; 72 h", "value": 187, "unit": "ng Eq./g"}]}]}
